ChEMBL document CHEMBL3351405, “Novel tricyclic pyrazolopyrimidines as potent and selective GPR119 agonists” (Bioorg Med Chem Lett, 2014)
Converted amounts (≈) assume the structure as drawn.

Assays:
[1] = target: T1, Glucose-dependent insulinotropic receptor (Mus musculus, UniProt Q7TQP3); experiment: Agonist activity at mouse GPR119 overexpressed in CHO cells assessed as increase in cellular cAMP production by HTRF method; format: functional, cell-based
T1 sequence (Q7TQP3 whole entry): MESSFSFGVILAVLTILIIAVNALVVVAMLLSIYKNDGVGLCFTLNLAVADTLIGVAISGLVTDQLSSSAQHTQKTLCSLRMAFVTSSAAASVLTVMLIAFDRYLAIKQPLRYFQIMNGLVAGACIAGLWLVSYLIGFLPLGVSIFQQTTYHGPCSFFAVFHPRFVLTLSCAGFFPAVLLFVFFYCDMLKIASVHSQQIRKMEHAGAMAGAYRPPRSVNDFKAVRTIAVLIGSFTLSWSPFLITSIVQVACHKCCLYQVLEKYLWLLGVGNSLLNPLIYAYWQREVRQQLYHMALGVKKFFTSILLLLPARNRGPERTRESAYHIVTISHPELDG

[2] = target: T2, Glucose-dependent insulinotropic receptor (Homo sapiens) (UniProt Q8TDV5); experiment: Agonist activity at human GPR119 overexpressed in CHO cells assessed as increase in cellular cAMP production by HTRF method relative to AR231453; format: functional, cell-based
T2 sequence (whole entry): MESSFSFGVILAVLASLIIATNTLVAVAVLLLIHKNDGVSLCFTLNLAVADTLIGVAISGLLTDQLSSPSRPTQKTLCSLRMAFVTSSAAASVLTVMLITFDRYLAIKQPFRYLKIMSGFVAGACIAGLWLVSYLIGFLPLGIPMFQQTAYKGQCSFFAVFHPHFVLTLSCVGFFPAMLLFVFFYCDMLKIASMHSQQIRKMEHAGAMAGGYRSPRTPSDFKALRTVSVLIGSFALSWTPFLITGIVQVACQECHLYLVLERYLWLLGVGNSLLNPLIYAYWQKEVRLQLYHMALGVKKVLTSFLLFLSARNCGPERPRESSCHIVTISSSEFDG

[3] = target: T3, Glucose-dependent insulinotropic receptor (Homo sapiens, UniProt Q8TDV5); experiment: Agonist activity at human GPR119 overexpressed in CHO cells assessed as increase in cellular cAMP production by HTRF method; format: functional, cell-based
T3 sequence (Q8TDV5 whole entry): T2 sequence (whole entry)

[4] = target: T4, Glucose-dependent insulinotropic receptor (Mus musculus) (UniProt Q7TQP3); experiment: Agonist activity at mouse GPR119 overexpressed in CHO cells assessed as increase in cellular cAMP production by HTRF method relative to AR231453; format: functional, cell-based
T4 sequence (whole entry): T1 sequence (Q7TQP3 whole entry)

[5] = Clearance in human liver microsomes assessed as extraction ratio; format: ADME; settings: read-out: ERH
[6] = Solubility of the compound at pH 6.8; format: physicochemical; settings: buffer
Mus musculus = experiment: Dose normalized AUC in po dosed Balb/C mouse; format: ADME, organism-based; settings: in vivo
[7] = Clearance in rat liver microsomes assessed as extraction ratio; format: ADME; settings: read-out: ERH
[8] = Clearance in mouse liver microsomes assessed as extraction ratio; format: ADME; settings: read-out: ERH

SMILES | EC50 [1] | Efficacy [2] | EC50 [3] | Efficacy [4] | hepatic extraction ratio [5] | solubility [6] | AUC/dose (Mus musculus) | hepatic extraction ratio [7] | hepatic extraction ratio [8] | Efficacy ([2]; tested as the 2H-labelled form)
COC(=O)C1(Cc2ccccc2)COc2cnc3c(-c4ccc(C(F)(F)F)cc4)cnn3c21 (racemic) | 0.015 µM | 83% | 0.011 µM | 76% | 0.88 |  |  |  |  | 
COC(=O)C1(Cc2ccccc2)CCc2cnc3c(-c4ccc(S(C)(=O)=O)cc4)cnn3c21 (racemic) |  | 81% | 0.125 µM |  | 0.89 |  |  |  |  | 
COC(=O)[C@@]1(Cc2cccc(F)c2)NCc2cnc3c(-c4ccc(C(F)(F)F)cc4)c(C(C)(C)O)nn3c21 |  | 58% | 0.53 µM |  | 0.51 |  |  |  |  | 
CCOC(=O)C1(Cc2ccccc2)c2c(cnc3c(-c4ccc(C(F)(F)F)cc4)cnn23)CN1C (racemic) |  | 55% | 0.214 µM |  |  |  |  |  |  | 
CCOC(=O)[C@](C)(Cc1ccccc1)c1c(Cl)cnc2c(-c3ccc(C(F)(F)F)cc3)cnn12 | 0.008 µM | 75% | 0.003 µM | 73% |  |  |  |  |  | 
CCOC(=O)C1(Cc2ccccc2)CCCCCc2cnc3c(-c4ccc(C(F)(F)F)cc4)cnn3c21 (racemic) |  | 56% | 0.101 µM |  |  |  |  |  |  | 
CCOC(=O)C1(Cc2cccc(F)c2)NC(=O)c2cnc3c(-c4ccc(C(F)(F)F)cc4)cnn3c21 (racemic) |  | 81% | 0.298 µM |  |  |  |  |  |  | 
COC(=O)[C@@]1(Cc2cccc(F)c2)NCc2cnc3c(-c4ccc(C(F)(F)F)cc4)c(C(N)=O)nn3c21 |  | 74% | 0.02 µM |  | 0.92 | 39 µM (≈ 20 µg/mL) |  |  |  | 
COC(=O)[C@@]1(Cc2cccc(F)c2)N=Cc2cnc3c(-c4ccc(C(F)(F)F)cc4)cnn3c21 | 0.135 µM | 84% | 0.073 µM | 80% | 0.97 |  |  |  |  | 
[2H]C([2H])(O)c1nn2c3c(cnc2c1-c1ccc(C(F)(F)F)nc1)CN[C@]3(Cc1cccc(F)c1)C(=O)OC |  |  | 0.035 µM |  | 0.85 | 83 µM (≈ 41.8 µg/mL) | 6.56 µM·h |  |  | 
OCc1nn2c3c(cnc2c1-c1ccc(C(F)(F)F)nc1)CN[C@]3(Cc1cccc(F)c1)C1CC1 |  | 82% | 0.006 µM |  | 0.93 | 36 µM (≈ 17.4 µg/mL) |  |  |  | 
CC1(Cc2cccc(F)c2)NCc2cnc3c(-c4ccc(C(F)(F)F)cc4)cnn3c21 (racemic) |  | 77% | 0.436 µM |  |  |  |  |  |  | 
COC(=O)[C@@]1(Cc2cccc(F)c2)NCc2cnc3c(-c4ccc(C(F)(F)F)cc4)cnn3c21 | 0.014 µM | 91% | 0.003 µM | 88% | 0.95 |  | 0.31 µM·h |  |  | 
CCOC(=O)[C@](C)(Cc1ccccc1)c1ccnc2c(-c3ccc(C(F)(F)F)cc3)c(C)nn12 | 0.024 µM | 83% | 0.023 µM | 72% |  |  |  |  |  | 
COC(=O)C1(Cc2ccccc2)CCc2cnc3c(-c4ccc(C#N)cc4)cnn3c21 (racemic) |  | 55% | 0.007 µM |  |  |  |  |  |  | 
COC(=O)C1(Cc2ccccc2)OCc2cnc3c(-c4ccc(C(F)(F)F)cc4)cnn3c21 (racemic) | 0.035 µM | 77% | 0.034 µM | 78% | 0.96 |  |  |  |  | 

SMILES | EC50 [1] | Efficacy [2] | EC50 [3] | Efficacy [4] | hepatic extraction ratio [5] | solubility [6] | AUC/dose (Mus musculus) | hepatic extraction ratio [7] | hepatic extraction ratio [8] | Efficacy ([2]; tested as the 2H-labelled form)
CCOC(=O)[C@@]1(Cc2ccccc2)CCc2cnc3c(-c4ccc(C(F)(F)F)cc4)cnn3c21 | 0.008 µM | 85% | 0.0005 µM | 80% | 0.96 |  | 0.3 µM·h | 0.6 | 0.6 | 
COC(=O)C1(Cc2ccccc2)CCCCc2cnc3c(-c4ccc(C(F)(F)F)cc4)cnn3c21 (racemic) |  | 66% | 0.074 µM |  |  |  |  |  |  | 
COCCN(C)C(=O)[C@@]1(Cc2cccc(F)c2)NCc2cnc3c(-c4ccc(C(F)(F)F)cc4)cnn3c21 |  | 90% | 0.002 µM |  | 0.9 | < 5 µM | 0.07 µM·h |  |  | 
CCOC(=O)[C@@]1(Cc2ccccc2)CCc2cnc3c(-c4ccc(Cl)cc4)cnn3c21 | 0.011 µM | 73% | 0.003 µM | 78% | 0.79 |  |  |  |  | 
CCOC(=O)[C@@]1(Cc2ccccc2)CCCc2cnc3c(-c4ccc(C(F)(F)F)cc4)cnn3c21 | 0.027 µM | 75% | 0.008 µM | 59% | 0.71 |  |  |  |  | 
COC(=O)[C@@]1(Cc2cccc(F)c2)CCc2cnc3c(-c4ccc(C(F)(F)F)cc4)cnn3c21 | 0.009 µM | 92% | 0.003 µM | 81% | 0.96 |  |  |  |  | 
COC(=O)[C@@]1(Cc2cccc(F)c2)NCc2cnc3c(-c4ccc(C(F)(F)F)nc4)c(CO)nn3c21 |  | 101% | 0.015 µM |  | 0.82 | 99 µM (≈ 49.6 µg/mL) |  |  |  | 87%
CCOC(=O)[C@](C)(Cc1ccccc1)c1cc(C)nc2c(-c3ccc(Cl)cc3)cnn12 |  | 15% | > 0.01 µM |  |  |  |  |  |  | 
OCc1nn2c3c(cnc2c1-c1ccc(C(F)(F)F)cc1)CN[C@]3(Cc1cccc(F)c1)C1CC1 |  | 88% | 0.002 µM |  | 0.9 | 6 µM (≈ 2.89 µg/mL) |  |  |  | 
CCOC(=O)[C@](C)(Cc1ccccc1)c1c(C)cnc2c(-c3ccc(C(F)(F)F)cc3)cnn12 | 0.011 µM | 80% | 0.001 µM | 62% | 0.3 |  | 0.6 µM·h | 0.3 | 0.3 | 
CCOC(=O)[C@@]1(Cc2ccccc2)CNc2cnc3c(-c4ccc(C(F)(F)F)cc4)cnn3c21 | 0.025 µM | 75% | 0.025 µM | 80% | 0.75 |  |  |  |  | 
CCOC(=O)C1(Cc2ccccc2)CCc2cnc3c(-c4ccc(Oc5ccccc5)cc4)cnn3c21 (racemic) |  | 60% | 0.02 µM |  |  |  |  |  |  | 
[2H]C([2H])(O)c1nn2c3c(cnc2c1-c1ccc(C(F)(F)F)cc1)CN[C@]3(Cc1cccc(F)c1)C(=O)OC |  |  | 0.002 µM |  | 0.83 | 26 µM (≈ 13.1 µg/mL) | 7.89 µM·h |  |  | 
Fc1cccc(CC2(C3CC3)NCc3cnc4c(-c5ccc(C(F)(F)F)cc5)cnn4c32)c1 (racemic) |  | 87% | 0.021 µM |  | 0.6 |  |  |  |  | 
CCOC(=O)[C@]1(Cc2ccccc2)CCc2cnc3c(-c4ccc(C(F)(F)F)cc4)cnn3c21 |  | 66% | 0.038 µM |  |  |  |  |  |  | 
COC(=O)C1(Cc2ccccc2)CCc2cnc3c(-c4ccc(C(F)(F)F)cc4)cnn3c21 (racemic) | 0.017 µM | 82% | 0.002 µM | 91% | 0.93 |  |  |  |  | 
